Experimental data from patent US9434743B2, “Indazole derivatives” (TAKEDA PHARMACEUTICAL COMPANY LIMITED, priority 2012, dated 2016).

How the values were obtained:
human MetAP2 enzyme [1] = molecular target: T1, human MetAP2 enzyme (Homo sapiens, UniProt P50579); test: MetAP2 enzyme assay, enzyme complexed with cobalt ions; details: MetAP2 Co pIC50, MetAP2 enzyme complexed with cobalt ions; Met-AMC substrate at Km
human MetAP2 enzyme [2] = molecular target: T1, human MetAP2 enzyme; test: MetAP2 enzyme assay, enzyme complexed with manganese ions; details: MetAP2 Mn pIC50, MetAP2 enzyme complexed with manganese ions; Met-AMC substrate at Km

T1 sequence (P50579 whole entry): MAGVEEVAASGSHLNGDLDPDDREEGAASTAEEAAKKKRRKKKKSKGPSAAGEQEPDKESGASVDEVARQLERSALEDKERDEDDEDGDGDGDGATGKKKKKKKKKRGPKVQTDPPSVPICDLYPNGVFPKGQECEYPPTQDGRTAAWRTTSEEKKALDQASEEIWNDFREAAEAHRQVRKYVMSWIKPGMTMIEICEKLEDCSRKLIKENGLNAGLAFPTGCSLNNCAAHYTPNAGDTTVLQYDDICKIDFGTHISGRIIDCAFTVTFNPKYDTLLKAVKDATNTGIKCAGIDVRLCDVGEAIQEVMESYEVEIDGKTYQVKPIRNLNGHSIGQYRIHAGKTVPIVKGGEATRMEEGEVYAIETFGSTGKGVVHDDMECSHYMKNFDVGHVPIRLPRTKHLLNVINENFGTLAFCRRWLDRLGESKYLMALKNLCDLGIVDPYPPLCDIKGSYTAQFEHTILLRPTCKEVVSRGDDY

SMILES | IC50 (human MetAP2 enzyme [1]) [nM] | IC50 (human MetAP2 enzyme [2]) [nM]
Cc1nn(CC(=O)N2CC(O)C2)c(C)c1-c1cc(C(F)(F)F)cc2[nH]ncc12 [Example 366, 2-(3,5-dimethyl-4-(6-(trifluoromethyl)-1H-indazol-4-yl)-1H-pyrazol-1-yl)-1-(3-hydroxyazetidin-1-yl)ethanone] | 50.1 | 15.8
Cc1cc2cncn2cc1-c1cc(C(F)(F)F)cc2[nH]ncc12 [Example 388, 4-(7-methylimidazo[1,5-a]pyridin-6-yl)-6-(trifluoromethyl)-1H-indazole] | 63.1 | 7.94
C[C@H](O)CNC(=O)c1cc(-c2cc(C(F)(F)F)cc3[nH]ncc23)c(=O)n(C)c1 [Example 359, (S)—N-(2-hydroxypropyl)-1-methyl-6-oxo-5-(6-(trifluoromethyl)-1H-indazol-4-yl)-1,6-dihydropyridine-3-carboxamide] | 501 | 10
FC(F)(F)c1cc(-c2ccnc3ccccc23)c2cn[nH]c2c1 [Example 112, 4-(6-(trifluoromethyl)-1H-indazol-4-yl)quinoline] | 50.1 | 12.6
CN1CCN(C(=O)c2ccc(-c3cc(C(F)(F)F)cc4[nH]ncc34)cn2)CC1 [Example 271, (4-methylpiperazin-1-yl)(5-(6-(trifluoromethyl)-1H-indazol-4-yl)pyridin-2-yl)methanone] | 316 | 12.6
COc1ccc(CO)cc1-c1cc(C(F)(F)F)cc2[nH]ncc12 [Example 185, (4-methoxy-3-(6-(trifluoromethyl)-1H-indazol-4-yl)phenyl)methanol] | 15.8 | 3.98
Cn1ncc(-c2cc(C(F)(F)F)cc3[nH]ncc23)c1N [Example 165, 1-methyl-4-(6-(trifluoromethyl)-1H-indazol-4-yl)-1H-pyrazol-5-amine] | 1000 | 63.1
Cc1nn(CC(=O)NC(C)C)c(C)c1-c1cc(C(F)(F)F)cc2[nH]ncc12 [Example 352, 2-(3,5-dimethyl-4-(6-(trifluoromethyl)-1H-indazol-4-yl)-1H-pyrazol-1-yl)-N-isopropylacetamide] | 39.8 | 20
O=C(NCCO)c1ccc(-c2cc(C(F)(F)F)cc3[nH]ncc23)cc1F [Example 109, 2-fluoro-N-(2-hydroxyethyl)-4-(6-(trifluoromethyl)-1H-indazol-4-yl)benzamide] | 50.1 | 3.16
CS(=O)(=O)c1cncc(-c2cc(C(F)(F)F)cc3[nH]ncc23)c1 [Example 105, 4-(5-(methylsulfonyl)pyridin-3-yl)-6-(trifluoromethyl)-1H-indazole] | 316 | 10
O=C(NCCO)c1cncc(-c2cc(C(F)(F)F)cc3[nH]ncc23)c1 [Example 290, N-(2-hydroxyethyl)-5-(6-(trifluoromethyl)-1H-indazol-4-yl)nicotinamide] | 251 | 7.94
CCN(CC)C(=O)c1cccc(-c2cc(C(F)(F)F)cc3[nH]ncc23)c1 [Example 32, N,N-diethyl-3-(6-(trifluoromethyl)-1H-indazol-4-yl)benzamide] | 39.8 | 20
CN1CCN(C(=O)c2c[nH]c(=O)c(-c3cc(C(F)(F)F)cc4[nH]ncc34)c2)CC1 [Example 297, 5-(4-methylpiperazine-1-carbonyl)-3-(6-(trifluoromethyl)-1H-indazol-4-yl)pyridin-2(1H)-one] | 158 | 6.31
Cc1nccc(N)c1-c1cc(C(F)(F)F)cc2[nH]ncc12 [Example 252, 2-methyl-3-(6-(trifluoromethyl)-1H-indazol-4-yl)pyridin-4-amine] | 1580 | 100
CN(C)CCOc1ccc(-c2cc(C(F)(F)F)cc3[nH]ncc23)cc1 [Example 280, N,N-dimethyl-2-(4-(6-(trifluoromethyl)-1H-indazol-4-yl)phenoxy)ethanamine] | 31.6 | 6.31
COc1ccc(-c2cc(C(F)(F)F)cc3[nH]ncc23)c(CO)c1 [Example 189, (5-methoxy-2-(6-(trifluoromethyl)-1H-indazol-4-yl)phenyl)methanol] | 50.1 | 5.01
COc1cccc(-c2cc(C(F)(F)F)cc3[nH]ncc23)n1 [Example 91, 4-(6-methoxypyridin-2-yl)-6-(trifluoromethyl)-1H-indazole] | 200 | 6.31
Cn1cc(-c2cc(C(F)(F)F)cc3[nH]ncc23)c(CO)n1 [Example 220, (1-methyl-4-(6-(trifluoromethyl)-1H-indazol-4-yl)-1H-pyrazol-3-yl)methanol] | 79.4 | 6.31
Cn1cc(-c2cc(C(F)(F)F)cc3[nH]ncc23)c(=O)n(CCO)c1=O [Example 303, 3-(2-hydroxyethyl)-1-methyl-5-(6-(trifluoromethyl)-1H-indazol-4-yl)pyrimidine-2,4(1H,3H)-dione] | 1000 | 12.6
Cc1nc(C(=O)NCCO)ccc1-c1cc(C(F)(F)F)cc2[nH]ncc12 [Example 387, N-(2-hydroxyethyl)-6-methyl-5-(6-(trifluoromethyl)-1H-indazol-4-yl)picolinamide] | 25.1 | 6.31

SMILES | IC50 (human MetAP2 enzyme [1]) [nM] | IC50 (human MetAP2 enzyme [2]) [nM]
O=C1Cc2cc(-c3cc(C(F)(F)F)cc4[nH]ncc34)ccc2N1 [Example 235, 5-(6-(trifluoromethyl)-1H-indazol-4-yl)indolin-2-one] | 12.6 | 3.98
Cn1ncc2cc(-c3cc(C(F)(F)F)cc4[nH]ncc34)ccc21 [Example 36, 1′-methyl-6-(trifluoromethyl)-1H,1′H-4,5′-biindazole] | 25.1 | 6.31
Cc1c(-c2cc(C(F)(F)F)cc3[nH]ncc23)ccc2ncnn12 [Example 393, 5-methyl-6-(6-(trifluoromethyl)-1H-indazol-4-yl)-[1,2,4]triazolo[1,5-a]pyridine] | 50.1 | 6.31
N#Cc1cnc(N)c(-c2cc(C(F)(F)F)cc3[nH]ncc23)c1 [Example 212, 6-amino-5-(6-(trifluoromethyl)-1H-indazol-4-yl)nicotinonitrile] | 200 | 10
FC(F)(F)c1cc(-c2cnc3ccccn23)c2cn[nH]c2c1 [Example 149, 4-(imidazo[1,2-a]pyridin-3-yl)-6-(trifluoromethyl)-1H-indazole] | 501 | 63.1
Cc1nn(CC(N)=O)cc1-c1cc(C(F)(F)F)cc2[nH]ncc12 [Example 274, 2-(3-methyl-4-(6-(trifluoromethyl)-1H-indazol-4-yl)-1H-pyrazol-1-yl)acetamide] | 63.1 | 3.98
COc1ccc(C(=O)NCCO)cc1-c1cc(C(F)(F)F)cc2[nH]ncc12 [Example 268, N-(2-hydroxyethyl)-4-methoxy-3-(6-(trifluoromethyl)-1H-indazol-4-yl)benzamide] | 39.8 | 15.8
Cc1nn(CC(=O)N(C)C)c(C)c1-c1cc(C(F)(F)F)cc2[nH]ncc12 [Example 363, 2-(3,5-dimethyl-4-(6-(trifluoromethyl)-1H-indazol-4-yl)-1H-pyrazol-1-yl)-N,N-dimethylacetamide] | 79.4 | 15.8
FC(F)(F)c1cc(-c2cnn(Cc3ccccn3)c2)c2cn[nH]c2c1 [Example 72, 4-(1-(pyridin-2-ylmethyl)-1H-pyrazol-4-yl)-6-(trifluoromethyl)-1H-indazole] | 25.1 | 2.51
Cc1nn(C)cc1-c1cc(C(F)(F)F)cc2[nH]ncc12 [Example 39, 4-(1,3-dimethyl-1H-pyrazol-4-yl)-6-(trifluoromethyl)-1H-indazole] | 31.6 | 12.6
NS(=O)(=O)c1ccc(-c2cc(C(F)(F)F)cc3[nH]ncc23)cc1 [Example 25, 4-(6-(trifluoromethyl)-1H-indazol-4-yl)benzenesulfonamide] | 50.1 | 7.94
O=C(NCC(F)F)c1c[nH]c(=O)c(-c2cc(C(F)(F)F)cc3[nH]ncc23)c1 [Example 338, N-(2,2-difluoroethyl)-6-oxo-5-(6-(trifluoromethyl)-1H-indazol-4-yl)-1,6-dihydropyridine-3-carboxamide] | 398 | 10
Oc1cccnc1-c1cc(C(F)(F)F)cc2[nH]ncc12 [Example 214, 2-(6-(trifluoromethyl)-1H-indazol-4-yl)pyridin-3-ol] | 501 | 15.8
N#Cc1cnc2c(-c3cc(C(F)(F)F)cc4[nH]ncc34)cnn2c1N [Example 159, 7-amino-3-(6-(trifluoromethyl)-1H-indazol-4-yl)pyrazolo[1,5-a]pyrimidine-6-carbonitrile] | 1580 | 158
C[C@@H](O)CNC(=O)c1cc(-c2cc(C(F)(F)F)cc3[nH]ncc23)c(=O)n(C)c1 [Example 358, (R)—N-(2-hydroxypropyl)-1-methyl-6-oxo-5-(6-(trifluoromethyl)-1H-indazol-4-yl)-1,6-dihydropyridine-3-carboxamide] | 501 | 10
COc1ccc(-c2cc(C(F)(F)F)cc3[nH]ncc23)c2cccnc12 [Example 113, 8-methoxy-5-(6-(trifluoromethyl)-1H-indazol-4-yl)quinoline] | 20 | 7.94
CN(C)C(=O)c1cccc(-c2cc(C(F)(F)F)cc3[nH]ncc23)c1 [Example 121, N,N-dimethyl-3-(6-(trifluoromethyl)-1H-indazol-4-yl)benzamide] | 63.1 | 6.31
Cc1nc(N2CCCC2)ccc1-c1cc(C(F)(F)F)cc2[nH]ncc12 [Example 384, 4-(2-methyl-6-(pyrrolidin-1-yl)pyridin-3-yl)-6-(trifluoromethyl)-1H-indazole] | 79.4 | 15.8
COc1ncc(-c2cc(C(F)(F)F)cc3[nH]ncc23)cc1C(=O)NCCO [Example 285, N-(2-hydroxyethyl)-2-methoxy-5-(6-(trifluoromethyl)-1H-indazol-4-yl)nicotinamide] | 50.1 | 3.98
